In PMC12818745 (ACS Chemical Neuroscience, 2025):
Read-outs that look alike come from different tables or passages of the source.

Key:
BChE = biological target: T1, BChE (Equus caballus, UniProt P81908); experiment: Kinetic analysis (Lineweaver–Burk), BChE; type: biochemical; settings: Lineweaver–Burk plots, substrate 50–800 μM
T1 construct: eqBChE (equine serum butyrylcholinesterase); from tissue; host or cells: equine serum
Method: (§1) Based on the computational predictions, derivatives 10 (series A) and 11r (series B) were initially expected to interact with both CAS and PAS of AChE and BChE. However, to better understand the actual mechanism of action of these compounds, kinetic studies were performed (Figure ). […].
(§2) […]. The enzymatic reactions and measurements were performed using the same assay conditions, as described above for the inhibition of both enzymes. All experiments were performed in triplicate. Linear regression analysis was performed with GraphPad Prism 8.0.2 (GraphPad Software Inc.).

AChE = AChE (Electrophorus electricus, UniProt O42275); experiment: Kinetic analysis (Lineweaver–Burk), AChE; type: biochemical; settings: Lineweaver–Burk plots, substrate 50–800 μM
Method: as §1, §2

[1] = biological target: T2, eqBChE (equine serum butyrylcholinesterase) (Equus caballus, UniProt P81908); experiment: Cholinesterase inhibition assay (modified Ellman's method), eqBChE; type: biochemical
T2 construct: eqBChE (equine serum butyrylcholinesterase); from tissue; host or cells: equine serum
Excerpt: (§3) Compound series A and B were initially screened for their cholinesterase activity against eeAChE (Electrophorus electricus AChE) and eqBChE (equine serum butyrylcholinesterase), using an adaptation of the Ellman’s method. […]. […] Similarly, replacing the terminal triple bond in 7l with a nitrile group reduced its activity, while replacing the O-propargyl group with an N,N-dipropargyl group in 10 enhanced the inhibition of both enzymes, particularly BChE (Table ). The installation of an additional aryl ring in 7o further improved AChE inhibition, slightly increasing selectivity toward this enzyme. […]. […]. […]. The inhibitory activity of the synthesized compounds toward eeAChE and eqBChE was evaluated spectrophotometrically through a 96-well microplate modified Ellman’s method. The solutions of both enzymes were prepared as 0.025 U/mL in phosphate buffer at pH 7, from stock solutions of 5.05 U/mL and 7.50 U/mL, respectively. The stock solutions for the target compounds (0.1 M) were prepared in dimethyl sulfoxide (DMSO). […] The reaction mixture was prepared with 100 μL of the enzyme (eeAChE or eqBChE) and 50 μL of the test compound (or DMSO/water, not exceeding 0.2% of DMSO in the wells; i.e blank samples). After 5 min of the preincubation period at 37 °C, 50 μL of ATChI or BTChI and 50 μL of DTNB were added to each well, thus initiating the enzymatic reaction. The absorbance values were measured at 415 nm, for a total of 7.5 min, at every 2.5 min, using a microplate reader (Synergy multimode reader; BioTek). […]. All experiments were performed in triplicate.

[2] = biological target: eeAChE (Electrophorus electricus AChE) (Electrophorus electricus, UniProt O42275); experiment: Cholinesterase inhibition assay (modified Ellman's method), eeAChE; type: biochemical; settings: for SI eeAChE: ratio eqBChE IC50/eeAChE IC50
Excerpt: as §3

Tau protein aggregation = biological target: T3, Tau protein aggregation (Homo sapiens, UniProt P10636); experiment: Thioflavin S assay of tau protein aggregation in E. coli cells overexpressing tau; type: cell-based, Escherichia coli; settings: read-out: Tau inhibition %
T3 construct: For the cloning and overexpression of full-length tau protein; expressed in transfected cells; host or cells: E. coli BL21 (DE3) carrying pTARA and pRKT42
Method: The antiaggregating profiles of both series A and B were evaluated using a fluorescence Thioflavin S (ThS) assay in cellulo, which monitors ThS fluorescence in the presence of β-sheet-rich structures, such as Aβ and tau protein aggregates. This method, based on recombinant Escherichia coli (E. coli) bacteria overexpressing insoluble aggregates, offers a simple and cost-effective approach to model aggregation processes in mammalian systems and has been validated for use in drug discovery studies. , Compounds were tested at a screening concentration of 50 μM for their ability to inhibit Aβ42 aggregation. The results, summarized in Table , reveal distinct antiaggregating profiles between series A and B, which are once again influenced by their structural differences.
This strategic extension aimed to validate the chromeno[3,4-b]-xanthone scaffold for related aggregation targets, considering the structural and pathological similarities between Aβ and tau aggregation processes. […]. […] Nevertheless, it is important to interpret the results cautiously, as the inability of certain compounds to cross bacterial membranes, may have underestimated their true inhibitory activity in the assay.
For the cloning and overexpression of full-length tau protein, E. coli BL21 (DE3) competent cells were transformed first with the pTARA vector containing the RNA polymerase gene of phage T7 (T7RP), controlled by the PBAD promoter. Subsequently, E. coli BL21(DE3) competent cells containing pTARA were transformed with the pRKT42 vector encoding four repeats of tau protein in two inserts. Similar to the procedure for Aβ42, overnight cultures were prepared by inoculating colonies of BL21 (DE3) cells bearing the plasmids in M9 medium supplemented with 0.5% glucose, 50 μg mL^–1 ampicillin, and 12.5 μg mL^–1 chloramphenicol at 37 °C. Upon induction, a 1:500 dilution of the overnight culture was added to fresh M9 minimal medium containing 0.5% glucose, 50 μg mL^–1 ampicillin, 12.5 μg mL^–1 chloramphenicol, and 25 μM ThS. The subsequent steps mirrored those for the Aβ assay, including the addition of the compound to be tested dissolved in DMSO and 10 μL of 25% arabinose or, alternatively, 10 μL of water for the noninduced controls, with a final compound concentration of […]. Negative controls for tau overexpression utilized free DMSO.
ThS (T1892) and all other chemical reagents were purchased from Sigma (St. Louis, MO). Stock solutions of ThS (250 μM) were prepared using doubly distilled water purified via a Milli-Q system (Millipore). For the fluorescence assay, ThS spectra were recorded utilizing an AmincoBowman series 2 luminescence spectrophotometer (Aminco-Bowman AB2, SLM Aminco, Rochester, NY) within the range of 460 to 600 nm at a temperature of 25 °C. The excitation wavelength employed was 445 nm, with slit widths set at 4 nm. The emission at 485 nm, corresponding to the ThS peak observed in the presence of amyloids, was recorded. To standardize ThS fluorescence relative to bacterial concentration in both in vitro and cell-based assays, the OD600 was determined using a Shimadzu UV-2401 PC UV–vis spectrophotometer. Fluorescence normalization was executed by setting the ThS fluorescence of bacterial cells expressing the peptide or protein in the absence of the drug as 100%, while that of bacterial cells not expressing the peptide or protein was established as 0%.

eeAChE (Electrophorus electricus AChE), sequence (O42275 24-633): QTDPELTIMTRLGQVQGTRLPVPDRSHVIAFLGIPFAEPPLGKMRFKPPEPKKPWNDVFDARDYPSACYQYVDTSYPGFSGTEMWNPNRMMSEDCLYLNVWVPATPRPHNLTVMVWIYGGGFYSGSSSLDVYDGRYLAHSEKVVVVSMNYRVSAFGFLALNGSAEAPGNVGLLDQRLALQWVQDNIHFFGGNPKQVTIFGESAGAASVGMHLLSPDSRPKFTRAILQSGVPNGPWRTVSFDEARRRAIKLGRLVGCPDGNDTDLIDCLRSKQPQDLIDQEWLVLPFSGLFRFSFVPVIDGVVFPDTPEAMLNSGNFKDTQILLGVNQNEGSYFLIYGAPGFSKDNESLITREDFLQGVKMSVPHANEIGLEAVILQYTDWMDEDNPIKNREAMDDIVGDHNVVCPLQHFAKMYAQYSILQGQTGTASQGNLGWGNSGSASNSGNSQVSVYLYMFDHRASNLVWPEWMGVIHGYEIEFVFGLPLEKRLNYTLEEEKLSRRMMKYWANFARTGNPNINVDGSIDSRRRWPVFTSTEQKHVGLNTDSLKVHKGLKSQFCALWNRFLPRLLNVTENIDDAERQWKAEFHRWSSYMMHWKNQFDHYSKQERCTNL
AChE, sequence (O42275 24-633): as above
T1 sequence (P81908 whole entry): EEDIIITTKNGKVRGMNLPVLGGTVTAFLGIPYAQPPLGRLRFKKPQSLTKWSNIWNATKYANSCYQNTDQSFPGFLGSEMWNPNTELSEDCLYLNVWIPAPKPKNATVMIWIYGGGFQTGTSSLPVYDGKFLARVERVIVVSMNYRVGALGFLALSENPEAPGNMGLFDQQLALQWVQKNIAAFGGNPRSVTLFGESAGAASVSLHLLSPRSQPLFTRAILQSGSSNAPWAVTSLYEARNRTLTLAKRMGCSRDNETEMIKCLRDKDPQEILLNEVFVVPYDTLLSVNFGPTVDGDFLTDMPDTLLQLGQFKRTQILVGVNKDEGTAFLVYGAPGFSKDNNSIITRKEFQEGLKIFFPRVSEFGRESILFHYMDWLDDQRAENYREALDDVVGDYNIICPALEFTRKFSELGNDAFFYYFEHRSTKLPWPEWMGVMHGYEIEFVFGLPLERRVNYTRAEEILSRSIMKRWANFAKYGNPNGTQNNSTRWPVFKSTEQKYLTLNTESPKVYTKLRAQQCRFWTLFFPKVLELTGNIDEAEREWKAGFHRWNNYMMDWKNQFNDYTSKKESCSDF
T2 sequence (P81908 whole entry): as above
T3 sequence (P10636 other isoform, or with tags, fused parts or gaps): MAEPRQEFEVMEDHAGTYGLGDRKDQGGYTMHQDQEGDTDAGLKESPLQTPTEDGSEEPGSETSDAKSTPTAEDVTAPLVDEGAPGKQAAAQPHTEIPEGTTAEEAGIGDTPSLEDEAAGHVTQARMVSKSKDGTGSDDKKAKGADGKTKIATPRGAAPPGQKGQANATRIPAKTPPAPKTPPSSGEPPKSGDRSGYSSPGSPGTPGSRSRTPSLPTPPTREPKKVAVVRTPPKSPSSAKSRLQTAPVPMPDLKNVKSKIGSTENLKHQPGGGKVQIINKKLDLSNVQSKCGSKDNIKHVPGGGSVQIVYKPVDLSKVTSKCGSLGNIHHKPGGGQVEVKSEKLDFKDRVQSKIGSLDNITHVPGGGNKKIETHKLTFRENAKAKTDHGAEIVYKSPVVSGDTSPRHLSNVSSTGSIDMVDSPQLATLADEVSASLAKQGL

Structure (SMILES)	Type of inhibition, BChE (BChE)	Type of inhibition, AChE (AChE)	IC50 [1] [µM]	IC50 ([2]; mean ± SEM, n = 3, n.a = nonactive, IC50 determined only if inhibition higher than 50% at 20 μM) [µM]	SI eeAChE [2]	inhibition at 50 µM (Tau protein aggregation) [%]	IC50 [2] [µM]
C#CCN(CC#C)c1ccccc1/C=C/c1cc(=O)c2ccccc2o1 [Compound 10, (E)-2-{2-[Di(prop-2-yn-1-yl)amino]styryl}-4H-chromen-4-one]	reversible competitive inhibition	reversible competitive inhibition	5.9 ± 0.4	8.7 ± 0.5	0.68	–	–
COc1ccc2c(=O)c3cc4c(cc3oc2c1)-c1cc(Cl)ccc1OC4 [Compound 11r, 2-Chloro-11-methoxy-6H,8H-chromeno[3,4-b]xanthen-8-one]	reversible competitive inhibition	reversible competitive inhibition	6.3 ± 0.6	–	3.00	61.3 ± 5.9	2.1 ± 0.9
